Test results published in BindingDB's records for PubMed 11916140 (Universit&Agrave, 2001).

How the values were obtained:
Test in all cases: Inhibition Assay
Conditions in all cases: pH 7.4; 25 °C
Carbonic anhydrase 1 = Carbonic anhydrase 1 (Homo sapiens, UniProt P00915)
Excerpt: (§1) Inhibition assay using human Carbonic anhydrase I and II and bovine carbonic anhydrase IV.

Carbonic anhydrase 2 = Carbonic anhydrase 2 (Homo sapiens, UniProt P00918)
Excerpt: as §1

Carbonic anhydrase 4 = biological target: T1, Carbonic anhydrase 4 (Bos taurus, UniProt Q95323)
T1 sequence (Q95323 whole entry): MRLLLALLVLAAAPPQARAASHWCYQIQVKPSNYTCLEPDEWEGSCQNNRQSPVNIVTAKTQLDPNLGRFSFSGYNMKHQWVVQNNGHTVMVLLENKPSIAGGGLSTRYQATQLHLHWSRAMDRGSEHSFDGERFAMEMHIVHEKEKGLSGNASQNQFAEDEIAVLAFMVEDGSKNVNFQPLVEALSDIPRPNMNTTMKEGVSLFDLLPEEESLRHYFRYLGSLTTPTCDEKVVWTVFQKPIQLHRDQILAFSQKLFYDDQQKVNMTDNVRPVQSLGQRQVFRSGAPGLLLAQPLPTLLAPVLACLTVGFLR
Excerpt: as §1

Carbonic anhydrase 1, sequence (P00915 whole entry): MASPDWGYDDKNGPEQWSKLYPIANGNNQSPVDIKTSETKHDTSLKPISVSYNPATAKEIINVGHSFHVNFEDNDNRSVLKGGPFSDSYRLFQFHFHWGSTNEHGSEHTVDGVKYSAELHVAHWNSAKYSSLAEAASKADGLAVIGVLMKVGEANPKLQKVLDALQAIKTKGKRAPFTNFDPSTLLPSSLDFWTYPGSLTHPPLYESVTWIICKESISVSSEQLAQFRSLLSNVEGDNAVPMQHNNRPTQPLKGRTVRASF

| Ki (Carbonic anhydrase 1) | Ki (Carbonic anhydrase 2) | Ki (Carbonic anhydrase 4) | SMILES |
| --- | --- | --- | --- |
| > 1000 nM | 21 nM | 54 nM | NS(=O)(=O)OCc1csc(-c2ccc(S(=O)(=O)c3ccc(Br)cc3)cc2)n1 [2-[4-(4-Bromophenylsulfonyl)-Phenyl}-thiazole-4-yl-methyl-sulfamate, 3c] |
| > 1000 nM | 16 nM | 50 nM | NS(=O)(=O)NCc1csc(-c2ccc(S(=O)(=O)c3ccc(Br)cc3)cc2)n1 [2-[4-(4-Bromophenylsulfonyl)-Phenyl}-thiazole-4-yl-methyl-sulfamide, 2c] |
| > 1000 nM | 30 nM | 66 nM | NS(=O)(=O)OCc1csc(-c2ccc(S(=O)(=O)c3ccc(Cl)cc3)cc2)n1 [2-[4-(4-Chlorophenylsulfonyl)-Phenyl}-thiazole-4-yl-methyl-sulfamate, 3b] |
| > 1000 nM | 24 nM | 65 nM | NS(=O)(=O)NCc1csc(-c2ccc(S(=O)(=O)c3ccc(Cl)cc3)cc2)n1 [2-[4-(4-Chlorophenylsulfonyl)-Phenyl}-thiazole-4-yl-methyl-sulfamide, 2b] |
| > 1000 nM | 33 nM | 87 nM | NS(=O)(=O)OCc1csc(-c2ccc(S(=O)(=O)c3ccccc3)cc2)n1 [2-[4-(Phenylsulfonyl)-Phenyl}-thiazole-4-yl-methyl-sulfamate, 3a] |
| > 1000 nM | 28 nM | 83 nM | NS(=O)(=O)NCc1csc(-c2ccc(S(=O)(=O)c3ccccc3)cc2)n1 [2-[4-(Phenylsulfonyl)-Phenyl}-thiazole-4-yl-methyl-sulfamide, 2a] |
